{"source": "patent US11331299B2", "about": "“Medicinal use of serrulatane diterpenes” (The University of Sydney, priority 2016, dated 2022)", "test_system": "280 human cancer cell lines", "test": "OncoPanel cell proliferation assay (10-day)", "assay_type": "cell-based", "conditions": "Homo sapiens; for GI50: read-out: Cell Count GI50; for pIC50: read-out: Cell Count IC50; for pEC50: read-out: Cell Count EC50", "key": {"[1]": {"conditions": "KHOS-240S, Soft Tissue - Osteosarcoma"}, "[2]": {"conditions": "ME-180, ME-180, Female GU - Ovary"}, "[3]": {"conditions": "MG-63, MG-63, Soft Tissue - Osteosarcoma"}, "[4]": {"conditions": "MHH-PREB-1, MHH-PREB-1, Leukemia"}, "[5]": {"conditions": "MIA PaCa-2, Mia PaCa-2, Pancreas"}, "[6]": {"conditions": "MS751, MS751, Female GU - Ovary"}, "[7]": {"conditions": "Malme-3M, MALME3M, Skin (Melanoma)"}}, "note": "pEC50, pIC50: −log10 of the molar value. Where two headings read alike, the source gives them in different places.", "data": [{"smiles": "CC(C)=CCC[C@H](C)[C@@H]1CC[C@@H](C)c2c1cc(C)c(O)c2O", "note": "[Compound 4, 7,8-dihydroxyserrulat-14-ene]", "values": [{"measurement": "GI50", "setting": "[1]", "result": 4.96, "unit": "µM"}, {"measurement": "pIC50", "setting": "[1]", "result": 5.30}, {"measurement": "pEC50", "setting": "KLE, Female GU - Uterus", "result": 4.74}, {"measurement": "GI50", "setting": "KLE, Female GU - Uterus", "result": 16.6, "unit": "µM"}, {"measurement": "pIC50", "setting": "KLE, Female GU - Uterus", "result": 4.74}, {"measurement": "pEC50", "setting": "KPL-1, KPL-1, Breast", "result": 5.38}, {"measurement": "GI50", "setting": "KPL-1, KPL-1, Breast", "result": 4.13, "unit": "µM"}, {"measurement": "pIC50", "setting": "KPL-1, KPL-1, Breast", "result": 5.38}, {"measurement": "pEC50", "setting": "KU812, KU812, Leukemia", "result": 5.02}, {"measurement": "GI50", "setting": "KU812, KU812, Leukemia", "result": 9.13, "unit": "µM"}, {"measurement": "pIC50", "setting": "KU812, KU812, Leukemia", "result": 5.02}, {"measurement": "pEC50", "setting": "L-428, L-428, Lymphoma", "result": 5.68}, {"measurement": "GI50", "setting": "L-428, L-428, Lymphoma", "result": 2.06, "unit": "µM"}, {"measurement": "pIC50", "setting": "L-428, L-428, Lymphoma", "result": 5.68}, {"measurement": "pEC50", "setting": "LNCaP, Prostate", "result": 4.94}, {"measurement": "GI50", "setting": "LNCaP, Prostate", "result": 12.4, "unit": "µM"}, {"measurement": "pIC50", "setting": "LNCaP, Prostate", "result": 4.89}, {"measurement": "pEC50", "setting": "LS-123, LS123, Colon", "result": 4.92}, {"measurement": "GI50", "setting": "LS-123, LS123, Colon", "result": 10.7, "unit": "µM"}, {"measurement": "pIC50", "setting": "LS-123, LS123, Colon", "result": 4.92}, {"measurement": "pEC50", "setting": "LS-411N, LS411N, Colon", "result": 4.64}, {"measurement": "GI50", "setting": "LS-411N, LS411N, Colon", "result": 22.6, "unit": "µM"}, {"measurement": "pIC50", "setting": "LS-411N, LS411N, Colon", "result": 4.64}, {"measurement": "pEC50", "setting": "LS-1034, LS1034, Colon", "result": 4.63}, {"measurement": "GI50", "setting": "LS-1034, LS1034, Colon", "result": 23.5, "unit": "µM"}, {"measurement": "pIC50", "setting": "LS-1034, LS1034, Colon", "result": 4.63}, {"measurement": "pEC50", "setting": "M059J, CNS - Glioma", "result": 4.89}, {"measurement": "GI50", "setting": "M059J, CNS - Glioma", "result": 12.9, "unit": "µM"}, {"measurement": "pIC50", "setting": "M059J, CNS - Glioma", "result": 4.89}, {"measurement": "pEC50", "setting": "MC116, MC116, Lymphoma", "result": 4.90}, {"measurement": "GI50", "setting": "MC116, MC116, Lymphoma", "result": 12.4, "unit": "µM"}, {"measurement": "pIC50", "setting": "MC116, MC116, Lymphoma", "result": 4.90}, {"measurement": "pEC50", "setting": "MC-IXC, CNS - Neuroblastoma", "result": 5.16}, {"measurement": "GI50", "setting": "MC-IXC, CNS - Neuroblastoma", "result": 6.88, "unit": "µM"}, {"measurement": "pIC50", "setting": "MC-IXC, CNS - Neuroblastoma", "result": 5.16}, {"measurement": "pEC50", "setting": "MCF7, MCF7, Breast", "result": 4.92}, {"measurement": "GI50", "setting": "MCF7, MCF7, Breast", "result": 11.9, "unit": "µM"}, {"measurement": "pIC50", "setting": "MCF7, MCF7, Breast", "result": 4.92}, {"measurement": "pEC50", "setting": "MDA-MB-231, MDA MB 231, Breast", "result": 4.94}, {"measurement": "GI50", "setting": "MDA-MB-231, MDA MB 231, Breast", "result": 11.3, "unit": "µM"}, {"measurement": "pIC50", "setting": "MDA-MB-231, MDA MB 231, Breast", "result": 4.94}, {"measurement": "pEC50", "setting": "MDA-MB-436, MDA-MB-436, Breast", "result": 4.99}, {"measurement": "GI50", "setting": "MDA-MB-436, MDA-MB-436, Breast", "result": 10.2, "unit": "µM"}, {"measurement": "pIC50", "setting": "MDA-MB-436, MDA-MB-436, Breast", "result": 4.99}, {"measurement": "pEC50", "setting": "MDA-MB-453, MDA MB 453, Breast", "result": 5.42}, {"measurement": "GI50", "setting": "MDA-MB-453, MDA MB 453, Breast", "result": 3.68, "unit": "µM"}, {"measurement": "pIC50", "setting": "MDA-MB-453, MDA MB 453, Breast", "result": 5.42}, {"measurement": "pEC50", "setting": "MDA-MB-468, MDA MB 468, Breast", "result": 5.13}, {"measurement": "GI50", "setting": "MDA-MB-468, MDA MB 468, Breast", "result": 7.34, "unit": "µM"}, {"measurement": "pIC50", "setting": "MDA-MB-468, MDA MB 468, Breast", "result": 5.13}, {"measurement": "pEC50", "setting": "[2]", "result": 4.60}, {"measurement": "GI50", "setting": "[2]", "result": 25.2, "unit": "µM"}, {"measurement": "pIC50", "setting": "[2]", "result": 4.60}, {"measurement": "pEC50", "setting": "MEG-01, MEG01, Leukemia", "result": 5.08}, {"measurement": "GI50", "setting": "MEG-01, MEG01, Leukemia", "result": 8.37, "unit": "µM"}, {"measurement": "pIC50", "setting": "MEG-01, MEG01, Leukemia", "result": 5.08}, {"measurement": "pEC50", "setting": "MES-SA, Soft Tissue - Sarcoma", "result": 5.19}, {"measurement": "GI50", "setting": "MES-SA, Soft Tissue - Sarcoma", "result": 6.44, "unit": "µM"}, {"measurement": "pIC50", "setting": "MES-SA, Soft Tissue - Sarcoma", "result": 5.19}, {"measurement": "pEC50", "setting": "[3]", "result": 4.95}, {"measurement": "GI50", "setting": "[3]", "result": 11.1, "unit": "µM"}, {"measurement": "pIC50", "setting": "[3]", "result": 4.95}, {"measurement": "pEC50", "setting": "[4]", "result": 5.24}, {"measurement": "GI50", "setting": "[4]", "result": 5.71, "unit": "µM"}, {"measurement": "pIC50", "setting": "[4]", "result": 5.24}, {"measurement": "pEC50", "setting": "[5]", "result": 4.96}, {"measurement": "GI50", "setting": "[5]", "result": 11, "unit": "µM"}, {"measurement": "pIC50", "setting": "[5]", "result": 4.96}, {"measurement": "pEC50", "setting": "MOLT-3, MOLT-3, Leukemia", "result": 5.50}, {"measurement": "GI50", "setting": "MOLT-3, MOLT-3, Leukemia", "result": 3.13, "unit": "µM"}, {"measurement": "pIC50", "setting": "MOLT-3, MOLT-3, Leukemia", "result": 5.50}, {"measurement": "pEC50", "setting": "MOLT-16, MOLT-16, Leukemia", "result": 5.40}, {"measurement": "GI50", "setting": "MOLT-16, MOLT-16, Leukemia", "result": 4.01, "unit": "µM"}, {"measurement": "pIC50", "setting": "MOLT-16, MOLT-16, Leukemia", "result": 5.40}, {"measurement": "pEC50", "setting": "[6]", "result": 4.92}, {"measurement": "GI50", "setting": "[6]", "result": 12, "unit": "µM"}, {"measurement": "pIC50", "setting": "[6]", "result": 4.92}, {"measurement": "pEC50", "setting": "MT-3, Colon", "result": 4.62}, {"measurement": "GI50", "setting": "MT-3, Colon", "result": 23.8, "unit": "µM"}, {"measurement": "pIC50", "setting": "MT-3, Colon", "result": 4.62}, {"measurement": "pEC50", "setting": "MV4-11, MV-4-11, Leukemia", "result": 5.42}, {"measurement": "GI50", "setting": "MV4-11, MV-4-11, Leukemia", "result": 3.8, "unit": "µM"}, {"measurement": "pIC50", "setting": "MV4-11, MV-4-11, Leukemia", "result": 5.42}, {"measurement": "pEC50", "setting": "MX1, Leukemia", "result": 5.61}, {"measurement": "GI50", "setting": "MX1, Leukemia", "result": 2.46, "unit": "µM"}, {"measurement": "pIC50", "setting": "MX1, Leukemia", "result": 5.61}, {"measurement": "pEC50", "setting": "[7]", "result": 4.69}, {"measurement": "GI50", "setting": "[7]", "result": 17.8, "unit": "µM"}, {"measurement": "pIC50", "setting": "[7]", "result": 4.69}, {"measurement": "pEC50", "setting": "MeWo, Skin (Melanoma)", "result": 5.02}, {"measurement": "GI50", "setting": "MeWo, Skin (Melanoma)", "result": 9.51, "unit": "µM"}, {"measurement": "pIC50", "setting": "MeWo, Skin (Melanoma)", "result": 5.02}, {"measurement": "pEC50", "setting": "NALM-6, NALM-6, Leukemia", "result": 5.58}, {"measurement": "GI50", "setting": "NALM-6, NALM-6, Leukemia", "result": 2.61, "unit": "µM"}, {"measurement": "pIC50", "setting": "NALM-6, NALM-6, Leukemia", "result": 5.58}, {"measurement": "pEC50", "setting": "NAMALWA, Lymphoma", "result": 5.41}, {"measurement": "GI50", "setting": "NAMALWA, Lymphoma", "result": 3.9, "unit": "µM"}, {"measurement": "pIC50", "setting": "NAMALWA, Lymphoma", "result": 5.41}, {"measurement": "pEC50", "setting": "NCI-H69, NCI-H69, Lung - SCLC", "result": 4.80}, {"measurement": "GI50", "setting": "NCI-H69, NCI-H69, Lung - SCLC", "result": 15.1, "unit": "µM"}, {"measurement": "pIC50", "setting": "NCI-H69, NCI-H69, Lung - SCLC", "result": 4.80}]}]}
